# Square brackets hold non-standard residues; d marks the D form. Peptide text beside a SMILES is read from it. * marks the point of attachment. Dolaproine = CO[C@@H]([C@@H]1CCCN1)[C@@H](C)C(=O)O; Hexanoyl(6-maleimido) = O=C1C=CC(=O)N1CCCCCC(=O)*; Dil = CC[C@H](C)[C@H](NC)[C@@H](CC(=O)O)OC; NMeV = CN[C@H](C(=O)O)C(C)C
# Key:
# [1] = system: PHTX-21c s.c. xenograft; experiment: MLN0264 and 5-Fluorouracil in PHTX-21C s.c. xenografts (Study CPGC-11-EF01); type: in vivo, CB-17 SCID mice; details: for dAUC: 4 days off, reference vehicle
# Experimental: (§1) Tumor volume was calculated using the formula: […]
# [2] = system: PHTX-09c s.c. xenograft; experiment: 5F9 vcMMAE and CPT-11 in PHTX-09C s.c. xenografts (Study CPGC-11-EF07)
# [3] = system: PHTX-11c s.c. xenograft; experiment: MLN0264 and CPT-11 in PHTX-11c s.c. xenografts (Study CPGC-12-EF01); details: W1-W3
# [4] = system: PHTX-17c s.c. xenograft; experiment: MLN0264 and CPT-11 in PHTX-17C s.c. xenografts (Study CPGC-11-EF06); type: in vivo, CB-17 SCID mice; details: PHTX-17c
# Experimental: as §1
# [5] = system: PHTX-21c s.c. xenograft; experiment: MLN0264 and CPT-11 in PHTX-21C s.c. xenografts (Study CPGC-11-EF04); details: PHTX-21c
# [6] = system: 293 GCC#2 tumors; experiment: Efficacy study with auristatin conjugates in 293 GCC#2 tumors, q7d×4; type: in vivo, SCID mice; details: 150 μg/kg iv q7d×4
# Experimental: 293 GCC#2 tumor-bearing SCID mice were treated with 5F9 conjugates with vc MMAE, vcMMAF or mcMMAF at three doses in comparison with 209 conjugates of these toxins or with free toxins or vehicle control. Doses were administered iv on a q7d×4 schedule. Tumors were harvested at days 3, 7, 10, 13 and 17. […] Table 18 provides a summary of the results (TGI=tumor growth inhibition, T/C=treatment/control, TGD=tumor growth delay, CR/PR=complete response/partial response; p value=measure to judge statistical significance, NS=not significant).
# [7] = PHTX-09c, CPT-11 10 mg/kg D1, 2 ×3 weeks
# [8] = CPT-11 10 mg/kg 2 d on 5 off i.v.
# [9] = CPT-11 15 mg/kg 2 d on 5 off i.v.
# [10] = CPT-11 10 mg/kg D1, D2 per week
# [11] = CPT-11 15 mg/kg D1, D2 per week
structure (smiles),measurement,setting,value
"O=c1[nH]cc(F)c(=O)[nH]1 [5-FU, 5-Fluorouracil, reference compound]",single agent anti-tumor activity,"[1]; PHTX-21c, 15 mg/kg and 25 mg/kg, 3 day on/4 day off",relatively low anti-tumor activity
same,dAUC,[1]; group E: 5-Fu 15 mg/kg 3 days on,44.1%
same,dAUC,[1]; group F: 5-Fu 25 mg/kg 3 days on,52.6%
"CCc1c2c(nc3ccc(OC(=O)N4CCC(N5CCCCC5)CC4)cc13)-c1cc3c(c(=O)n1C2)COC(=O)[C@]3(O)CC [CPT-11, irinotecan]",single agent activity,[2]; PHTX-09c (FIGS. 8B and 8C),moderate
same,Days to 1000 mm^3,[2]; [7],>23 days
same,T/C,[2]; [7],0.4
same,TGI,[2]; [7],60.3%
same,Days to 1000 mm^3,[3]; [8],>18 days
same,T/C,[3]; [8],0.34
same,TGI,[3]; [8],65.9%
same,Days to 1000 mm^3,[3]; [9],>18 days
same,T/C,[3]; [9],0.31
same,TGI,[3]; [9],69.2%
same,Days to 1000 mm^3,[3]; CPT-11 30 mg/kg (D1 QW) i.v.,>18 days
same,T/C,[3]; CPT-11 30 mg/kg (D1 QW) i.v.,0.39
same,TGI,[3]; CPT-11 30 mg/kg (D1 QW) i.v.,61.1%
same,Days to 1000 mm^3,[4]; CPT-11 10 mg/kg QD 2on 5off,>17 days
same,T/C,[4]; CPT-11 10 mg/kg QD 2on 5off,0.28
same,TGI,[4]; CPT-11 10 mg/kg QD 2on 5off,71.7%
same,Days to 1000 mm^3,[4]; CPT-11 15 mg/kg 2 on 5off,>17 days
same,T/C,[4]; CPT-11 15 mg/kg 2 on 5off,0.22
same,TGI,[4]; CPT-11 15 mg/kg 2 on 5off,77.7%
same,Days to 1000 mm^3,[4]; CPT-11 30 mg/kg QW,>17 days
same,T/C,[4]; CPT-11 30 mg/kg QW,0.4
same,TGI,[4]; CPT-11 30 mg/kg QW,60.5%
same,Days to 1000 mm^3,[5]; [10],>15 days
same,T/C,[5]; [10],0.22
same,TGI,[5]; [10],78.4%
same,Days to 1000 mm^3,[5]; [11],>15 days
same,T/C,[5]; [11],0.16
same,TGI,[5]; [11],84.4%
same,Days to 1000 mm^3,[5]; CPT-11 30 mg/kg D1 QW,>15 days
same,T/C,[5]; CPT-11 30 mg/kg D1 QW,0.37
same,TGI,[5]; CPT-11 30 mg/kg D1 QW,62.8%
same,single agent anti-tumor activity,[5]; the two lower doses administered (10 and 15 mg/kg),moderate to high single agent activity
"CC[C@H](C)[C@@H]([C@@H](CC(=O)N1CCC[C@H]1[C@H](OC)[C@@H](C)C(=O)N[C@@H](Cc1ccccc1)C(=O)O)OC)N(C)C(=O)[C@@H](NC(=O)[C@H](C(C)C)N(C)C(=O)CCCCCN1C(=O)C=CC1=O)C(C)C [Free mcMMAF, reference compound] ({Hexanoyl(6-maleimido)}-[NMeV]V[Dil][Dolaproine]F-OH)",TGI,[6],−3.4
same,CR/PR,[6]; complete response/partial response,0
same,T/C,[6]; treatment/control,1.03
same,TGD,[6]; tumor growth delay,−1.3

# — US20140356383A1, “ADMINISTRATION OF AN ANTI-GCC ANTIBODY-DRUG CONJUGATE AND A DNA DAMAGING AGENT IN THE TREATMENT OF CANCER” (priority 2013, published 2014)
